Assays:
Aβ42 [1] = experiment: Method 2: Aβ42 Alphalisa on supernatant of SKNBE2 cells carrying APP 695 wild type; type: cell-based; settings: SKNBE2 cells APP 695 wild type, overnight
Procedure: (§1) Screening was carried out using SKNBE2 cells carrying the APP 695—wild type, grown in Dulbecco's Modified Eagle's Medium/Nutrient mixture F-12 (DMEM/NUT-mix F-12) (HAM) provided by Invitrogen (cat no. 10371-029) containing 5% Serum/Fe supplemented with 1% non-essential amino acids, 1-glutamine 2 mM, Hepes 15 mM, penicillin 50 U/ml (units/ml) en streptomycin 50 μg/ml. Cells were grown to near confluency.
(§2) The screening was performed using a modification of the assay as described in Citron et al (1997) Nature Medicine 3: 67. Briefly, cells were plated in a 384-well plate at 10^4 cells/well in Ultraculture (Lonza, BE12-725F) supplemented with 1% glutamine (Invitrogen, 25030-024), 1% non-essential amino acid (NEAA), penicillin 50 U/ml en streptomycin 50 μg/ml in the presence of test compound at different test concentrations. The cell/compound mixture was incubated overnight at 37° C., 5% CO2, The next day the media were assayed by two sandwich immuno-assays, for Aβ42 and Aβtotal.
(§3) Aβtotal and Aβ42 concentrations were quantified in the cell supernatant using the Aphalisa technology (Perkin Elmer). Alphalisa is a sandwich assay using biotinylated antibody attached to streptavidin coated donorbeads and antibody conjugated to acceptor beads. In the presence of antigen, the beads come into close proximity. The excitation of the donor beads provokes the release of singlet oxygen molecules that trigger a cascade of energy transfer in the acceptor beads, resulting in light emission. To quantify the amount of Aβ42 in the cell supernatant, monoclonal antibody specific to the C-terminus of Aβ42 (JRF/cAβ42/26) was coupled to the receptor beads and biotinylated antibody specific to the N-terminus of AB (JRF/AβN/25) was used to react with the donor beads. To quantify the amount of Aβtotal in the cell supernatant, monoclonal antibody specific to the N-terminus of AB (JRF/AβN/25) was coupled to the receptor beads and biotinylated antibody specific to the mid region of Aβ (biotinylated 4G8) was used to react with the donor beads.
(§4) To obtain the values reported in Table 3b, the data were calculated as percentage of the maximum amount of amyloid Beta 42 measured in the absence of the test compound. The sigmoidal dose response curves were analyzed using non-linear regression analysis with percentage of the control plotted against the log concentration of the compound. A 4-parameter equation was used to determine the IC50.

Aβtotal [2] = experiment: Method 2: Aβtotal Alphalisa on supernatant of SKNBE2 cells carrying APP 695 wild type; type: cell-based; settings: SKNBE2 cells APP 695 wild type, overnight
Procedure: as §1, §2, §3, §4

Aβ42 [3] = experiment: Method 1: Aβ42 sandwich ELISA on media of SKNBE2 cells carrying APP 695 wild type (γ-secretase-modulating activity); type: cell-based; settings: SKNBE2 cells APP 695 wild type, 18 hours
Procedure: as §1, with “Gibco” for “Invitrogen”, “31330-38)” for “10371-029)”, “acids.” for “acids, 1-glutamine 2 mM, Hepes 15 mM, penicillin 50 U/ml (units/ml) en streptomycin 50 μg/ml.”
(§5) The screening was performed using the assay as described in Citron et al (1997) Nature Medicine 3: 67. Briefly, cells were plated in a 96-well plate at about 10^5 cells/ml one day prior to addition of compounds. Compounds were added to the cells in Ultraculture (Lonza, BE12-725F) supplemented with 1% glutamine (Invitrogen, 25030-024) for 18 hours. The media were assayed by two sandwich ELISAs, for Aβ42 and Aβtotal. Toxicity of the compounds was assayed by WST-1 cell proliferation reagent (Roche, 1 644 807) according to the manufacturer's protocol.
To quantify the amount of Aβ42 in the cell supernatant, commercially available Enzyme-Linked-Immunosorbent-Assay (ELISA) kits were used (Innotest® β-Amyloid(1-42), Innogenetics N.V., Ghent, Belgium). The Aβ42 ELISA was performed essentially according to the manufacturer's protocol. Briefly, the standards (dilutions of synthetic A131-42) were prepared in polypropylene Eppendorf with final concentrations of 8000 down to […] (½ dilution step). Samples, standards and blanks (100 μl) were added to the anti-Aβ42-coated plate supplied with the kit (the capture antibody selectively recognizes the C-terminal end of the antigen). The plate was allowed to incubate 3 h at 25° C. in order to allow formation of the antibody-amyloid complex. Following this incubation and subsequent wash steps a selective anti-A13-antibody conjugate (biotinylated 3D6) was added and incubated for a minimum of 1 hour in order to allow formation of the antibody-Amyloid-antibody-complex. After incubation and appropriate wash steps, a Streptavidine-Peroxidase-Conjugate was added, followed 30 minutes later by an addition of 3,3′,5,5′-tetramethylbenzidine (TMB)/peroxide mixture, resulting in the conversion of the substrate into a coloured product. This reaction was stopped by the addition of sulfuric acid (0.9 N) and the colour intensity was measured by means of photometry with an ELISA-reader with a 450 nm filter.
(§6) To obtain the values reported in Table 3a, the sigmoidal dose response curves were analysed by computerised curve-fitting, with percent of inhibition plotted against compound concentration. A 4-parameter equation (model 205) in XLfit was used to determine the IC50. The top and the bottom of the curve were fixed to 100 and 0, respectively, and the hill slope was fixed to 1. The IC50 represents the concentration of a compound that is required for inhibiting a biological effect by 50% (Here, it is the concentration where Aβ peptide level is reduced by 50%).

Aβtotal [4] = experiment: Method 1: Aβtotal sandwich ELISA on media of SKNBE2 cells carrying APP 695 wild type; type: cell-based; settings: SKNBE2 cells APP 695 wild type, 18 hours
Procedure: as §1, with “Gibco” for “Invitrogen”, “31330-38)” for “10371-029)”, “acids.” for “acids, 1-glutamine 2 mM, Hepes 15 mM, penicillin 50 U/ml (units/ml) en streptomycin 50 μg/ml.”
as §5
To quantify the amount of Aβtotal in the cell supernatant, samples and standards were added to a 6E10-coated plate. The plate was allowed to incubate overnight at 4° C. in order to allow formation of the antibody-amyloid complex. Following this incubation and subsequent wash steps a selective anti-AB-antibody conjugate (biotinylated 4G8) was added and incubated for a minimum of 1 hour in order to allow formation of the antibody-Amyloid-antibody-complex. After incubation and appropriate wash steps, a Streptavidine-Peroxidase-Conjugate was added, followed 30 minutes later by an addition of Quanta Blu fluorogenic peroxidase substrate according to the manufacturer's instructions (Pierce Corp., Rockford, Il).
as §6

Row | Compound | IC50 (Aβ42 [1]; Homo sapiens) [nM] | melting point [°C] | IC50 (Aβtotal [2]; Homo sapiens) [nM] | IC50 (Aβ42 [3]; Homo sapiens) [nM] | IC50 (Aβtotal [4]; Homo sapiens) [nM] | IC50 (Aβ42 [3]) [nM] | IC50 (Aβ42 [1]) [nM] | IC50 (Aβtotal [2]) [nM] | IC50 (Aβtotal [4]) [nM]
1 | Cc1ncc(-c2ccc(Nc3cccc4cn(C5CCOCC5)nc34)cc2)o1 [Compound 28, N-[4-(2-methyl-5-oxazolyl)phenyl]-2-(tetrahydro-2H-pyran-4-yl)-2H-indazol-7-amine] | > 3000 | 224.8 |  |  |  |  |  |  | 
2 | CC(C)c1ncc(-c2ccc(Nc3cccc4cn(CC(F)(F)F)nc34)cc2)o1 [Compound 48, N-[4-[2-(1-methylethyl)-5-oxazolyl]phenyl]-2-(2,2,2-trifluoroethyl)-2H-indazol-7-amine] | > 3000 | 103.9 | > 3000 |  |  |  |  |  | 
3 | Cc1ncc(-c2ccc(Nc3cccc4c(C)n(-c5ccc(F)cc5F)nc34)cc2)o1 [Compound 33, 2-(2,4-difluorophenyl)-3-methyl-N-[4-(2-methyl-5-oxazolyl)phenyl]-2H-indazol-7-amine] | 166 | 139.9 | > 10000 |  |  |  |  |  | 
4 | CCOc1cc(C)c(-n2nc3c(Nc4ccc(-c5cnc(C)o5)cc4)cccc3c2C)cc1C(C)C [Compound 30, 2-[4-ethoxy-2-methyl-5-(1-methylethyl)phenyl]-3-methyl-N-[4-(2-methyl-5-oxazolyl)phenyl]-2H-indazol-7-amine] | 129 |  | > 10000 | 127 | > 3000 |  |  |  | 
5 | COc1cc(Nc2cccc3cn(C)nc23)ccc1-n1cnc(C)c1 [Compound 9, N-[3-methoxy-4-(4-methyl-1H-imidazol-1-yl)phenyl]-2-methyl-2H-indazol-7-amine] | < 3000 |  | > 3000 | 1470 | > 10000 |  |  |  | 
6 | CCOc1cc(C)c(-n2nc3c(Nc4ccc(-n5cnc(C)n5)c(OC)c4)cccc3c2C)cc1C(C)C [Compound 20, 2-[4-ethoxy-2-methyl-5-(1-methylethyl)phenyl]-N-[3-methoxy-4-(3-methyl-1H-1,2,4-triazol-1-yl)phenyl]-3-methyl-2H-indazol-7-amine] | 59 |  | 6030 | 67 | > 3000 |  |  |  | 
7 | COc1cc(Nc2cccc3cn(CC(F)(F)F)nc23)ccc1-n1cnc(C)n1 [Compound 18, N-[3-methoxy-4-(3-methyl-1H-1,2,4-triazol-1-yl)phenyl]-2-(2,2,2-trifluoroethyl)-2H-indazol-7-amine] | 331 |  | > 10000 | 479 | > 3000 |  |  |  | 
8 | Cc1ncc(-c2ccc(Nc3cccc4cn(CC5CC5)nc34)cc2)o1 [Compound 25, 2-(cyclopropylmethyl)-N-[4-(2-methyl-5-oxazolyl)phenyl]-2H-indazol-7-amine .2HCl] |  |  |  |  |  | 1740 | 1260 | 49000 | > 150000
9 | COc1cc(Nc2cc(C)nc3cn(CC(F)(F)F)nc23)ccc1-c1cnc(C)o1 [Compound 51, N-[3-methoxy-4-(2-methyl-5-oxazolyl)phenyl]-5-methyl-2-(2,2,2-trifluoroethyl)-2H-pyrazolo[4,3-b]pyridin-7-amine] | 234 | 211.5 | 5250 |  |  |  |  |  | 
10 | Cc1ncoc1-c1ccc(Nc2cccc3c(C)n(-c4ccc(F)cc4)nc23)cn1 [Compound 46, 2-(4-fluorophenyl)-3-methyl-N-[6-(4-methyl-5-oxazolyl)-3-pyridinyl]-2H-indazol-7-amine] | 66 |  | 4270 | 199 | > 3000 |  |  |  | 
11 | COc1cc(Nc2nc(C)cc3cn(CC(F)(F)F)nc23)ccc1-n1cnc(C)n1 [Compound 21, N-[3-methoxy-4-(3-methyl-1H-1,2,4-triazol-1-yl)phenyl]-5-methyl-2-(2,2,2-trifluoroethyl)-2H-pyrazolo[3,4-c]pyridin-7-amine] | > 3000 | 203.4 | > 3000 |  |  |  |  |  | 
12 | Cc1ncc(-c2ccc(Nc3cccc4c(C)n(-c5ccc(F)cc5)nc34)cc2)o1 [Compound 31, 2-(4-fluorophenyl)-3-methyl-N-[4-(2-methyl-5-oxazolyl)phenyl]-2H-indazol-7-amine .1.5HCl] |  |  |  |  |  | 126 | 37 | > 10000 | > 3000
13 | COc1cc(Nc2nc(C)cc3cn(CC(F)(F)F)nc23)ccc1-c1cnc(C)o1 [Compound 41, N-[3-methoxy-4-(2-methyl-5-oxazolyl)phenyl]-5-methyl-2-(2,2,2-trifluoroethyl)-2H-pyrazolo[3,4-c]pyridin-7-amine] | > 3000 | 213.8 | > 3000 |  |  |  |  |  | 
14 | COc1nc(Nc2cc(C(C)C)nc3cn(CC(F)(F)F)nc23)ccc1-n1cnc(C)c1 [Compound 57, N-[6-methoxy-5-(4-methyl-1H-imidazol-1-yl)-2-pyridinyl]-5-(1-methylethyl)-2-(2,2,2-trifluoroethyl)-2H-pyrazolo[4,3-b]pyridin-7-amine] | 107 | 172.5 | 1660 |  |  |  |  |  | 
15 | CCCCn1cc2cc(C#N)cc(Nc3ccc(-n4cnc(C)c4)c(OC)c3)c2n1 [Compound 11, 2-butyl-7-[[3-methoxy-4-(4-methyl-1H-imidazol-1-yl)phenyl]amino]-2H-indazole-5-carbonitrile .2HCl] |  |  |  |  |  | 77 | < 3000 | > 3000 | > 3000
16 | Cc1ncc(-c2ccc(Nc3cccc4cn(C)nc34)cc2)o1 [Compound 24, 2-methyl-N-[4-(2-methyl-5-oxazolyl)phenyl]-2H-indazol-7-amine] | > 3000 | 168.7 | > 3000 |  |  |  |  |  | 
17 | COc1cccc(-n2nc3c(Nc4ccc(-c5ocnc5C)c(OC)c4)cccc3c2C)c1 [Compound 39, N-[3-methoxy-4-(4-methyl-5-oxazolyl)phenyl]-2-(3-methoxyphenyl)-3-methyl-2H-indazol-7-amine .1.9HCl] |  |  |  |  |  | 29 | 30 | > 10000 | > 3000
18 | COc1cccc(-n2nc3c(Nc4ccc(-c5ocnc5C)nc4)cccc3c2C)c1 [Compound 4, 2-(3-methoxyphenyl)-3-methyl-N-[6-(4-methyl-5-oxazolyl)-3-pyridinyl]-2H-indazol-7-amine] | 22 |  | 4790 | 55 | > 3000 |  |  |  | 
